Reference: patent US5871946A, “Method for determining activity of enzymes in metabolically active whole cells” (priority 1995, dated 1999)
Where “and” joins values, the source holds several entries; their conditions need not be identical. Equal entries are not always repeated. Numbered stars: 1 amine (or outer) side, 2 acyl side, 3 side chain; on linkers, the order of the positions; unused ones are H or OH. Bridge positions count the residues as written; N and C are the ends. Peptide text beside a SMILES is read from it. I, II: the chains in the order shown. Rhodamine110 = O=C1OC2(c3ccc(N[*:1])cc3Oc3cc(N[*:2])ccc32)c2ccccc21

Legend:
Format in all cases: cell-based, human
[1] = tested on: cells of normals and HIV + patients; assay: Substrate panel in cells of normals and HIV+ patients, possible TB infection (Table 4)
Protocol: A panel of assay compounds are assembled consisting of Ala-aminopeptidase and Lys-aminopeptidase, Dipeptidyl peptidase IV (Ala-Ala)2 rhodamine 110 and Cathepsin D to indicate possible TB infection in AIDS related cases.
A panel of enzymatic substrates is performed consisting of Ala-aminopeptidase and Lys-aminopeptidase, Dipeptidyl peptidase IV (Ala-Ala)2 rhodamine 110 and Cathepsin D to indicate possible TB infection in AIDS related cases.

LYMPHOCYTES = assay: Disease to normal ratio of enzyme activity, lymphocytes (Table 5)
Excerpt: (§1) A normal in house adult donor pool was drawn, recording sex and determining that no known disease state was present at the time of sample draw. Criteria for rejecting samples included patients under medication, patients with infection or inflammation of any type, colds and flu as well as any known medical illness such as cancer, heart ailment and high blood pressure. A donor list of 75 patients has been developed and a mean and 2 sd range established. A subgroup of "super normals" was developed from this list by examining the 75 patients to determine which group falls closest to the mean for all enzymes in all cell types tested. These patients were used as the "wellness index" or best group of "normalcy" patients. If a study required the use of children or newborns then this same format was used to develop a data base for these age groups.

MONOCYTES = assay: Disease to normal ratio of enzyme activity, monocytes (Table 5)
Excerpt: as §1

[2] = Inflam. Bowel Dis., monocytes section

SMILES | MEAN DELTA FL ([1]; HIV + PATIENTS) | MEAN DELTA FL ([1]; NORMALS) | Ratio of disease to normal (LYMPHOCYTES; Dermatomyositis) | Ratio of disease to normal (LYMPHOCYTES; Inflam. Bowel Dis.) | Ratio of disease to normal (LYMPHOCYTES; JRA) | Ratio of disease to normal (LYMPHOCYTES; Kawasaki's) | Ratio of disease to normal (LYMPHOCYTES; Lupus) | Ratio of disease to normal (LYMPHOCYTES; Rheumatic Fever) | Ratio of disease to normal (MONOCYTES; [2]) | Ratio of disease to normal (MONOCYTES; JRA, monocytes) | Ratio of disease to normal (MONOCYTES; Kawasaki's, monocytes) | Ratio of disease to normal (MONOCYTES; Lupus, monocytes) | Ratio of disease to normal (MONOCYTES; Rheumatic Fever, monocytes) | MEAN DELTA FL ([1]; HIV + PATIENTS, listed as ALA--GLY*) | MEAN DELTA FL ([1]; NORMALS, listed as ALA--GLY*) | Ratio of disease to normal (MONOCYTES; Dermatomyositis, monocytes) | MEAN DELTA FL ([1]; HIV + PATIENTS, listed as LYS--ALA^1) | MEAN DELTA FL ([1]; NORMALS, listed as LYS--ALA^1)
NC(=O)CC[C@H](N)C(=O)N[C@@H](CO)C(=O)Nc1ccc2c(c1)Oc1cc(NC(=O)[C@H](CO)NC(=O)[C@@H](N)CCC(N)=O)ccc1C21OC(=O)c2ccccc21 (relative stereo) [GLN--SER*] | 13.7 and 12.7 | 11.9 and 6.1 | – | – | – | – | – | – | – | – | – | – | – | – | – | – | – | –
C[C@H](N)C(=O)Nc1ccc2c(c1)Oc1cc(NC(=O)[C@H](C)N)ccc1C21OC(=O)c2ccccc21 [ALA, (Ala)2 Rho 110] | – | – | 1.16 | 1.53 | 1.59 | 1.05 | 1.16 | 1.18 | 1.43 | 1.31 | 1.36 | 6.17 | 1.08 | – | – | – | – | –
C[C@H](N)C(=O)NCC(=O)Nc1ccc2c(c1)Oc1cc(NC(=O)CNC(=O)[C@H](C)N)ccc1C21OC(=O)c2ccccc21 [ALA--GLY****] | 39.9 | 48.0 | – | – | – | – | – | – | – | – | – | – | – | 29.7 | 31.6 | – | – | –
O=C1OC2(c3ccc(OP(=O)(O)O)cc3Oc3cc(OP(=O)(O)O)ccc32)c2ccccc21 [DPO4, (PO4)2 fluorescein] | – | – | – | – | – | – | – | – | – | 1.13 | – | – | 1.09 | – | – | – | – | –
CC(=O)Oc1ccc2c(c1)Oc1cc(OC(C)=O)ccc1C21OC(=O)c2ccccc21 [FDA, fluorescein diacetate, reference compound] | – | – | 1.06 | – | 1.17 | – | 1.01 | – | – | 1.55 | – | 1.01 | – | – | – | – | – | –
CC(=O)Oc1ccc2c(c1)Oc1cc(OC(C)=O)ccc1C21OC(=O)c2ccccc21 [FDA-NAF, reference compound] | – | – | 1.14 | 0.89 | 0.21 | 0.30 | 0.74 | 0.97 | 1.11 | 0.35 | 0.58 | 0.83 | 0.89 | – | – | 1.03 | – | –
C[C@H](NC(=O)CNC(=O)[C@H](Cc1ccccc1)NC(=O)CN)C(=O)Nc1ccc2c(c1)Oc1cc(NC(=O)[C@H](C)NC(=O)CNC(=O)[C@H](Cc3ccccc3)NC(=O)CN)ccc1C21OC(=O)c2ccccc21 [GFGA, (Gly-Phe-Gly-Ala)2 Rho 110] (I: H-GFGA / II: H-GFGA; linker I:C-II:C via Rhodamine110) | – | – | 2.14 | 2.16 | 2.03 | 2.15 | 1.25 | 2.14 | 3.42 | 2.29 | 1.77 | 2.18 | 1.36 | – | – | 2.01 | – | –
NCC(=O)Nc1ccc2c(c1)Oc1cc(NC(=O)CN)ccc1C21OC(=O)c2ccccc21 [GLY, (Gly)2 Rho 110] | – | – | – | 1.97 | – | 1.94 | 1.64 | 2.09 | 1.84 | 1.11 | 3.83 | – | 2.06 | – | – | 1.01 | – | –
C[C@H](NC(=O)[C@@H](N)CCCCN)C(=O)Nc1ccc2c(c1)Oc1cc(NC(=O)[C@H](C)NC(=O)[C@@H](N)CCCCN)ccc1C21OC(=O)c2ccccc21 [KA, (Lys-Ala)2 Rho 110] | – | – | 1.39 | 1.75 | – | 1.53 | 1.93 | 1.19 | 1.95 | – | 2.22 | 6.93 | 2.39 | – | – | 1.04 | – | –
C[C@H](NC(=O)[C@@H](N)CCCCN)C(=O)Nc1ccc2c(c1)Oc1cc(NC(=O)[C@H](C)NC(=O)[C@@H](N)CCCCN)ccc1C21OC(=O)c2ccccc21 [KA-M, (Lys-Ala)2 Rho 110] | – | – | 1.93 | 1.63 | 1.46 | 1.32 | 1.06 | 2.07 | – | 12.14 | 7.08 | 14.08 | 15.36 | – | – | 1.55 | – | –
C[C@H](NC(=O)[C@@H](N)CCCCN)C(=O)Nc1ccc2c(c1)Oc1cc(NC(=O)[C@H](C)NC(=O)[C@@H](N)CCCCN)ccc1C21OC(=O)c2ccccc21 [LYS--ALA^2] | 7.9 | 7.6 | – | – | – | – | – | – | – | – | – | – | – | – | – | – | 121.5 | 112.6
N=C(N)NCCC[C@H](N)C(=O)NCC(=O)N[C@@H](CCC(=O)O)C(=O)N[C@@H](CO)C(=O)Nc1ccc2c(c1)Oc1cc(NC(=O)[C@H](CO)NC(=O)[C@H](CCC(=O)O)NC(=O)CNC(=O)[C@@H](N)CCCNC(=N)N)ccc1C21OC(=O)c2ccccc21 (stereo partly drawn) [RGES, (Arg-Gly-Glu-Ser)2 Rho 110] (I: H-RGES / II: H-RGES; linker I:C-II:C via Rhodamine110) | – | – | 2.06 | 1.96 | 1.43 | 1.43 | 1.84 | 2.04 | 6.02 | 3.98 | 4.65 | 3.03 | 6.52 | – | – | 5.22 | – | –
CC(C)[C@H](N)C(=O)N[C@@H](CCCCN)C(=O)Nc1ccc2c(c1)Oc1cc(NC(=O)[C@H](CCCCN)NC(=O)[C@@H](N)C(C)C)ccc1C21OC(=O)c2ccccc21 [VK, (Val-Lys)2 Rho 110] | – | – | 1.39 | 1.08 | – | 1.19 | 1.25 | – | 3.08 | 5.94 | 5.38 | 1.64 | 1.32 | – | – | 1.42 | – | –
CC(C)[C@H](N)C(=O)N[C@@H](CCCCN)C(=O)Nc1ccc2c(c1)Oc1cc(NC(=O)[C@H](CCCCN)NC(=O)[C@@H](N)C(C)C)ccc1C21OC(=O)c2ccccc21 [VK-M, (Val-Lys)2 Rho 110 (modified)] | – | – | – | – | 7.71 | – | – | – | 1.41 | 3.49 | – | 11.37 | 8.67 | – | – | 3.45 | – | –
O=C(NCC(=O)N1CCC[C@H]1C(=O)Nc1ccc2c(c1)Oc1cc(NC(=O)[C@@H]3CCCN3C(=O)CNC(=O)OCc3ccccc3)ccc1C21OC(=O)c2ccccc21)OCc1ccccc1 [Z-GP, (carbobenzyloxycarbonyl-Gly-Pro)2 Rho 110] | – | – | 1.73 | 1.73 | 1.29 | – | 1.93 | 3.23 | 1.64 | 1.34 | 4.06 | 1.88 | 3.56 | – | – | – | – | –
O=C(NCC(=O)N1CCC[C@H]1C(=O)Nc1ccc2c(c1)Oc1cc(NC(=O)[C@@H]3CCCN3C(=O)CNC(=O)OCc3ccccc3)ccc1C21OC(=O)c2ccccc21)OCc1ccccc1 [Z-GP-M, (carbobenzyloxycarbonyl-Gly-Pro)2 Rho 110 (modified)] | – | – | 3.45 | – | – | 3.44 | 2.09 | 4.09 | 3.33 | 1.79 | 4.47 | 1.92 | 2.99 | – | – | 3.05 | – | –
C[C@@H](O)[C@H](NC(=O)OCc1ccccc1)C(=O)N1CCC[C@H]1C(=O)Nc1ccc2c(c1)Oc1cc(NC(=O)[C@@H]3CCCN3C(=O)[C@@H](NC(=O)OCc3ccccc3)[C@@H](C)O)ccc1C21OC(=O)c2ccccc21 [Z-TP6.5, (carbobenzyloxycarbonyl-Thr-Pro)2 Rho 110 (pH 6.5)] | – | – | 3.87 | 3.03 | 2.89 | 5.85 | – | 7.19 | 2.83 | 8.33 | – | 2.29 | 5.37 | – | – | 3.12 | – | –
